Results on 16 compounds are retold here after patent US8202885B2, “Bridged six-membered ring compounds” (Actelion Pharmaceuticals Ltd., priority 2007, dated 2012).

This assay deals with human Cav3.1 Cav3.2 or Cav3.3 channel. Nature of the assay: In vitro assay T channel (FLIPR calcium fluorescence). Format: cell-based. The settings on record: HEK293 cells expressing human Cav3.1, Cav3.2 or Cav3.3; 10 mM Ca2+-induced fluo-4 fluorescence; determined up to 10 μM; read-out: T channel antagonistic activity IC50. The procedure, abridged:
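HEK293 cells stably expressing human Cav3.1, Cav3.2 or Cav3.3 loaded with fluo-4 AM (3 μM), preincubated 3 min with antagonist, then stimulated with 10 mM Ca2+ in TEA-chloride/HEPES buffer pH 7.2. FLIPR fluorescence read every 2 s for 8 min; IC50 from peak area versus vehicle, tested up to 10 μM.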
Regarding `COc1ccccc1-c1cnc(CCCN(C)CC[C@]2(OC(=O)C(C)C)C[C@H]3CC[C@@H]2C=C3c2ccccc2)[nH]1` (relative stereo) [Example 72A, rac-Isobutyric acid (1R*,2R*,4R*)-2-[2-({3-[5-(2-methoxy-phenyl)-1H-imidazol-2-yl]-propyl}-methyl-amino)-ethyl]-5-phenyl-bicyclo[2.2.2]oct-5-en-2-yl ester], the 50% inhibitory concentration (IC50) came to 2290 nM.
Regarding `COc1cccc2c1nc(CCCN(C)CC[C@]1(OC(=O)C(C)C)C[C@H]3CC[C@@H]1C=C3c1ccccc1)n2C` (relative stereo) [Example 37A, rac-Isobutyric acid (1R*,2R*,4R*)-2-(2-{[3-(4-methoxy-1-methyl-1H-benzoimidazol-2-yl)-propyl]-methyl-amino}-ethyl)-5-phenyl-bicyclo[2.2.2]oct-5-en-2-yl ester], the IC50 was 935 nM.
With `COc1cc2nc(CCCN(C)CC[C@]3(OC(=O)C(C)C)C[C@H]4CC[C@@H]3C=C4c3ccccc3)[nH]c2cc1OC` (relative stereo) [Example 28A, rac-Isobutyric acid (1R*,2R*,4R*)-2-(2-{[3-(5,6-dimethoxy-1H-benzoimidazol-2-yl)-propyl]-methyl-amino}-ethyl)-5-phenyl-bicyclo[2.2.2]oct-5-en-2-yl ester] the figure was 3460 nM; with `CC(C)C(=O)O[C@@]1(CCN(C)CCCc2ccnc3ccccc23)C[C@H]2CC[C@@H]1C=C2c1ccccc1` (relative stereo) [Example 50A, rac-Isobutyric acid (1R*,2R*,4R*)-2-{2-[methyl-(3-quinolin-4-yl-propyl)-amino]-ethyl}-5-phenyl-bicyclo[2.2.2]oct-5-en-2-yl ester], greater than 10000 nM.
Turning to `COc1ccc(OC)c2[nH]c(CCCN(C)CCC3(OC(=O)C(C)C)CC4CCC3C=C4c3ccccc3)nc12` [Example 67A, Isobutyric acid (1R,2R,4R)-2-(2-{[3-(4,7-dimethoxy-1H-benzoimidazol-2-yl)-propyl]-methyl-amino}-ethyl)-5-phenyl-bicyclo[2.2.2]oct-5-en-2-yl ester or Isobutyric acid (1S,2S,4S)-2-(2-{[3-(4,7-dimethoxy-1H-benzoimidazol-2-yl)-propyl]-methyl-amino}-ethyl)-5-phenyl-bicyclo[2.2.2]oct-5-en-2-yl ester], the IC50 came to 778 nM.
Regarding `COc1ccc2[nH]c(CCCN(C)CC[C@]3(OC(=O)C(C)C)C[C@H]4CC[C@@H]3C=C4c3ccccc3)nc2c1` (relative stereo) [Example 29A, rac-Isobutyric acid (1R*,2R*,4R*)-2-(2-{[3-(5-methoxy-1H-benzoimidazol-2-yl)-propyl]-methyl-amino}-ethyl)-5-phenyl-bicyclo[2.2.2]oct-5-en-2-yl ester], the IC50 is 4510 nM.
Regarding `CN(CCCc1cnc2ccccc2c1)CC[C@]1(O)C[C@H]2CC[C@@H]1C=C2c1ccccc1` (relative stereo) [Example 49, rac-(1R*,2R*,4R*)-2-{2-[Methyl-(3-quinolin-3-yl-propyl)-amino]-ethyl}-5-phenyl-bicyclo[2.2.2]oct-5-en-2-ol], the IC50 is greater than 10000 nM.
`COCCOc1cccc2[nH]c(CCCN(C)CC[C@]3(OC(=O)C(C)C)C[C@H]4CC[C@@H]3C=C4c3ccccc3)nc12` (relative stereo) [Example 63A, rac-Isobutyric acid (1R*,2R*,4R*)-2-[2-({3-[4-(2-methoxy-ethoxy)-1H-benzoimidazol-2-yl]-propyl}-methyl-amino)-ethyl]-5-phenyl-bicyclo[2.2.2]oct-5-en-2-yl ester]: the IC50 turned out to be 1440 nM.
The same measure for `COc1ccc(OC)c2[nH]c(CCCN(C)CCC3(OC(=O)C(C)C)CC4CCC3C=C4c3ccccc3)nc12` [Example 70A, Isobutyric acid (1R,2R,4R)-2-(2-{[3-(4,7-dimethoxy-1H-benzoimidazol-2-yl)-propyl]-methyl-amino}-ethyl)-5-phenyl-bicyclo[2.2.2]oct-5-en-2-yl ester or isobutyric acid (1S,2S,4S)-2-(2-{[3-(4,7-dimethoxy-1H-benzoimidazol-2-yl)-propyl]-methyl-amino}-ethyl)-5-phenyl-bicyclo[2.2.2]oct-5-en-2-yl ester]: 793 nM.
Consider `CC(C)C(=O)O[C@@]1(CCN(C)CCCc2nc3ccccc3[nH]2)C[C@H]2CC[C@@H]1C=C2c1nccs1` (relative stereo) [Example 24A, rac-Isobutyric acid (1R*,2R*,4R*)-2-(2-{[3-(1H-benzoimidazol-2-yl)-propyl]-methyl-amino}-ethyl)-5-thiazol-2-yl-bicyclo[2.2.2]oct-5-en-2-yl ester], for which the IC50 is 2750 nM.
Consider `CC(C)C(=O)O[C@@]1(CCN(C)CCCc2nc3ccccc3[nH]2)C[C@H]2CC[C@@H]1C=C2c1ccc(F)cc1` (relative stereo) [Example 8A, rac-Isobutyric acid (1R*,2R*,4R*)-2-(2-{[3-(1H-benzoimidazol-2-yl)-propyl]-methyl-amino}-ethyl)-5-(4-fluoro-phenyl)-bicyclo[2.2.2]oct-5-en-2-yl ester], for which the IC50 was 1630 nM.
On to `COc1ccc(C2=C[C@H]3CC[C@@H]2C[C@]3(CCN(C)CCCc2nc3ccccc3[nH]2)OC(=O)C(C)C)cc1` (relative stereo) [Example 22A, rac-Isobutyric acid (1R*,2R*,4R*)-2-(2-{[3-(1H-benzoimidazol-2-yl)-propyl]-methyl-amino}-ethyl)-5-(4-methoxy-phenyl)-bicyclo[2.2.2]oct-5-en-2-yl ester], for which the IC50 was determined as 6930 nM.
`COC(C)(C)C(=O)NCCCN(C)CC[C@]1(OC(=O)C(C)C)C[C@H]2CC[C@@H]1C=C2c1ccccc1` (relative stereo) [Example 44A, rac-Isobutyric acid (1R*,2R*,4R*)-2-(2-{[3-(2-methoxy-2-methyl-propionylamino)-propyl]-methyl-amino}-ethyl)-5-phenyl-bicyclo[2.2.2]oct-5-en-2-yl ester]: the IC50 was greater than 10000 nM.
Take `COc1cccc2[nH]c(CCCN(C)CC[C@]3(OC(=O)CC(F)(F)F)C[C@H]4CCC[C@@H]3C=C4c3ccccc3)nc12` (relative stereo) [Example 36B, rac-3,3,3-Trifluoro-propionic acid (1R*,5R*,6R*)-6-(2-{[3-(4-methoxy-1H-benzoimidazol-2-yl)-propyl]-methyl-amino}-ethyl)-8-phenyl-bicyclo[3.2.2]non-8-en-6-yl ester]: the IC50 worked out at 2450 nM.
With `COc1cccc2[nH]c(CCCN(C)CC[C@]3(OC(=O)C4CCC4)C[C@H]4CC[C@@H]3C=C4c3ccccc3)nc12` (relative stereo) [Example 26B, rac-Cyclobutanecarboxylic acid (1R*,2R*,4R*)-2-(2-{[3-(4-methoxy-1H-benzoimidazol-2-yl)-propyl]-methyl-amino}-ethyl)-5-phenyl-bicyclo[2.2.2]oct-5-en-2-yl ester], the IC50 was greater than 10000 nM.
For the compound `COc1cccc2nc(CCN(C)CC[C@]3(OC(=O)C(C)C)C[C@H]4CC[C@@H]3C=C4c3ccccc3)[nH]c12` (relative stereo) [Example 32A, rac-Isobutyric acid (1R*,2R*,4R*)-2-(2-{[2-(7-methoxy-1H-benzoimidazol-2-yl)-ethyl]-methyl-amino}-ethyl)-5-phenyl-bicyclo[2.2.2]oct-5-en-2-yl ester], the half-maximal inhibitory concentration (IC50) was determined as 3390 nM.

The term IC50 denotes the concentration that inhibits the measured activity by half.
